Consider seven compounds from paper PMC9781652, “Dinuclear Iron Complexes of Iminopyridine-Based Ligands as Selective Cytotoxins for Tumor Cells and Inhibitors of Cancer Cell Migration” (Pharmaceutics, 2022).

For test [1], the system named is NCI-H460 human lung carcinoma cells. In words: Cell proliferation assay (MTT), NCI-H460. Type of test: cell-based. The following applies: for IC50: 72 h exposure, MTT, mean ± SE; for SI NCI-H460 (selectivity index): ratio IC50 CCD-18Co / IC50 NCI-H460. The procedure: (§1) Cells were seeded into 96-well plates at densities of 1500 cells per well for OVCAR-8, 1900 for NCI-H460, and 4000 for CCD-18Co. After 24 h of incubation, they were treated for 72 h with different concentrations of the compounds (concentration range: 0.01 to 6 μM for OVCAR-8; 0.05 to 2 μM for NCI-H460; and 0.07 to 70 μM for CCD-18Co cells). When indicated, cells were also incubated with 30 µM of the ROS scavenger Manganese (III) 5,10,15,20-tetrakis (4-benzoic acid) porphyrin (MnTBAP) (Calbiochem, San Diego, CA, USA). Cell viability was measured using the MTT assay as previously described. The IC50 value corresponds to the concentration of the assayed compound that is required to inhibit the cell proliferation by 50%, and was calculated by linear interpolation from the obtained growth curves. All data are reported as the mean ± standard error (SE) calculated from at least three independent experiments with three replicates in each.

Test [2] deals with OVCAR-8 human ovarian carcinoma cells. The test is described as follows: Cell proliferation assay (MTT), OVCAR-8. The conditions noted are these: for IC50: 72 h exposure, MTT, mean ± SE; for SI OVCAR-8 (selectivity index): ratio IC50 CCD-18Co / IC50 OVCAR-8. Type of test: cell-based. The procedure:
as §1

Test [3] concerns CCD-18Co human colon fibroblasts. The test is described as follows: Cell proliferation assay (MTT), non-tumor CCD-18Co. Type of test: cell-based. The conditions noted are these: non-tumor cells, 72 h exposure, mean ± SE. The protocol:
as §1

A further test has as its system supercoiled pUC18 DNA. In words: DNA interaction analysis by agarose gel electrophoresis. Type of test: biochemical. The following applies: 24 h, 37 °C; for Effect on pUC18 DNA in the presence of H2O2 at the highest concentrations: with H2O2. The protocol: The interaction of DNA with the compounds was monitored in an agarose gel electrophoresis as previously described. […] Two other samples were included in the assays: a sample of pUC18 DNA alone as negative control and a sample of pUC18 DNA with 5 µg/mL cisplatin for comparison purposes. […] Gels were stained with ethidium bromide (1 µg/mL in TBE) for 15 min and DNA bands were visualized under UV light.

One may read the IC50 as the concentration at which inhibition is half-maximal. Lower therefore signals higher potency. With `N.N.O=C([O-])C1(C(=O)[O-])CCC1.[Pt+2]` [Carboplatin, carboplatin, reference compound], in test [1], the IC50 amounted to 12.8 ± 2.23 µM and the “SI NCI-H460 (selectivity index)” value worked out at 18.8. In test [2], the IC50 came out at 110 ± 4.2 µM and the “SI OVCAR-8 (selectivity index)” value was 2.1. The compound also displayed an IC50 in test [3] of 240 ± 25.2 µM.
Turning to `N.N.[Cl][Pt][Cl]` [Cisplatin, cisplatin, reference compound], the IC50 in test [1] came out at 1.01 ± 0.14 µM; in test [2], 6.91 ± 1.21 µM; in test [3] it was 31.2 ± 5.76 µM. Also, in test [2], the “SI OVCAR-8 (selectivity index)” value amounted to 4.5. Further, the “Interaction with pUC18 DNA in the absence of H2O2” value in the test with supercoiled pUC18 DNA (25-100 µM compounds (cisplatin 5 µg/mL), no H2O2) is listed as “migration of the CCC form decreases until it co-migrates with the OC form”.
Take `CC#N.CC#N.CC#N.CC#N.Cc1cc(N=Cc2ccccn2)c2c(c1)C1CC(O2)Oc2c(N=Cc3ccccn3)cc(C)cc21.Cc1cc(N=Cc2ccccn2)c2c(c1)C1CC(O2)Oc2c(N=Cc3ccccn3)cc(C)cc21.F[B-](F)(F)F.F[B-](F)(F)F.F[B-](F)(F)F.F[B-](F)(F)F.[Fe+2].[Fe+2]` [Compound 7, [Fe21_2(CH3CN)4](BF4)4]: the figures for the concentration for half-maximal inhibition (IC50) in test [1], in test [2] and in test [3] were 0.43 ± 0.03 µM, 1.39 ± 0.14 µM and 7.78 ± 5.67 µM, respectively. The “SI NCI-H460 (selectivity index)” value in test [1] is 18.1. Further, the “SI OVCAR-8 (selectivity index)” value in test [2] is given as 5.6.
For `CC#N.CC#N.CC#N.CC#N.Cc1cc(N=Cc2cccc(Br)n2)c2c(c1)C1CC(O2)Oc2c(N=Cc3cccc(Br)n3)cc(C)cc21.Cc1cc(N=Cc2cccc(Br)n2)c2c(c1)C1CC(O2)Oc2c(N=Cc3cccc(Br)n3)cc(C)cc21.F[B-](F)(F)F.F[B-](F)(F)F.F[B-](F)(F)F.F[B-](F)(F)F.[Fe+2].[Fe+2]` [Compound 8, [Fe22_2(CH3CN)4](BF4)4], in test [1], it took 0.48 ± 0.13 µM to reach half-maximal inhibition (IC50) and the “SI NCI-H460 (selectivity index)” value is on record as 14.6. In test [2], the IC50 was 1.27 ± 0.39 µM and the “SI OVCAR-8 (selectivity index)” value amounted to 5.5. Moreover, in test [3], it took 7 ± 3.43 µM to reach half-maximal inhibition (IC50). Further, in the test with supercoiled pUC18 DNA, the “Effect on pUC18 DNA in the presence of H2O2 at the highest concentrations” value is “total DNA degradation”.
Regarding `CC#N.CC#N.CC#N.CC#N.Cc1cc(N=Cc2ccc(Br)cn2)c2c(c1)C1CC(O2)Oc2c(N=Cc3ccc(Br)cn3)cc(C)cc21.Cc1cc(N=Cc2ccc(Br)cn2)c2c(c1)C1CC(O2)Oc2c(N=Cc3ccc(Br)cn3)cc(C)cc21.F[B-](F)(F)F.F[B-](F)(F)F.F[B-](F)(F)F.F[B-](F)(F)F.[Fe+2].[Fe+2]` [Compound 9, [Fe23_2(CH3CN)4](BF4)4], the values for the IC50 in test [1], in test [2] and in test [3] were 0.6 ± 0.04 µM, 1.78 ± 0.16 µM and 7.2 ± 3.4 µM, respectively. In addition, in test [1], the “SI NCI-H460 (selectivity index)” value came to 12.0. Moreover, the “SI OVCAR-8 (selectivity index)” value in test [2] stood at 4.1.
The like results for `CC#N.CC#N.CC#N.CC#N.COc1cccc(C=Nc2cc(C)cc3c2OC2CC3c3cc(C)cc(N=Cc4cccc(OC)n4)c3O2)n1.COc1cccc(C=Nc2cc(C)cc3c2OC2CC3c3cc(C)cc(N=Cc4cccc(OC)n4)c3O2)n1.F[B-](F)(F)F.F[B-](F)(F)F.F[B-](F)(F)F.F[B-](F)(F)F.[Fe+2].[Fe+2]` [Compound 11, [Fe25_2(CH3CN)4](BF4)4] were, in that order, 0.5 ± 0.1 µM, 1.4 ± 0.3 µM, 12 ± 1.44 µM, 24.1 and 8.6.
For the compound `CC#N.CC#N.CC#N.CC#N.Cc1cc(N=Cc2ccc3ccccc3n2)c2c(c1)C1CC(O2)Oc2c(N=Cc3ccc4ccccc4n3)cc(C)cc21.Cc1cc(N=Cc2ccc3ccccc3n2)c2c(c1)C1CC(O2)Oc2c(N=Cc3ccc4ccccc4n3)cc(C)cc21.F[B-](F)(F)F.F[B-](F)(F)F.F[B-](F)(F)F.F[B-](F)(F)F.[Fe+2].[Fe+2]` [Compound 12, [Fe26_2(CH3CN)4](BF4)4], in test [1], the 50% inhibitory concentration (IC50) came to 0.49 ± 0.08 µM and the “SI NCI-H460 (selectivity index)” value turned out to be 8.1. In test [2], half-maximal inhibition (IC50) required 1.24 ± 0.27 µM and the “SI OVCAR-8 (selectivity index)” value came out at 3.2. This compound registered a 50% inhibitory concentration (IC50) in test [3] of 4.05 ± 0.62 µM. For the same compound, the “Effect on pUC18 DNA in the presence of H2O2 at the highest concentrations” value in the test on supercoiled pUC18 DNA is “total DNA degradation”.
